Where two headings read alike, the source gives them in different places. Blank lines part the entries; values can stand above or below the molecule they belong to.
What was measured:
[1] = rat, in vivo
[2] = system: rats; conditions: ref Hirata-Koizumi et al., 2008b, cited from earlier work
[3] = rat, in vivo, 10 mg/kg; cited from earlier work
[4] = male, Sprague Dawley, rat, in vivo, iv, 2.25 mg/kg
[5] = Toxicokinetics in plasma after a single gavage administration; conditions: male rats
[6] = male, Sprague Dawley, rat, in vivo
[7] = male, Sprague Dawley, po, 30 mg/kg
[8] = male, Sprague Dawley, po, 300 mg/kg
[9] = male, Sprague Dawley, 300 mg/kg

time points where plasma concentrations were below LOD ([1]; male, Sprague Dawley, 30 mg/kg): 0.0333 h
AUC [1, 7]: 21000 ± 5300 ng·h/mL
Cmax [1, 7]: 2020 ± 490 ng/mL
Half-life (beta half-life) [1, 7]: 48.4 ± 116 h
Tmax [1, 7]: 3.08 ± 0.77 h
AUC [1, 8]: 41600 ± 11600 ng·h/mL
Cmax [1, 8]: 2450 ± 710 ng/mL
Half-life (beta half-life) [1, 8]: 37.5 ± 401 h
Tmax [1, 8]: 5.06 ± 1.24 h
SMILES: Cc1cc(-n2nc3ccc(Cl)cc3n2)c(O)c(C(C)(C)C)c1 [Bumetrizole, 2-(5-chloro-2H-1,2,3-benzotriazol-2-yl)-6-(1,1-dimethylethyl)-4-methylphenol]

SMILES: CC(C)(C)c1ccc(O)c(-n2nc3ccccc3n2)c1 [ditBu-BZT, 2-(2H-benzotriazol-2-yl)-4-tert-butylphenol]
toxicity finding ([2]; gavage 0.1–12.5 mg/kg for 13 and 52 weeks): enlarged livers accompanied by histopathological changes
toxicity finding at the highest dose ([2]; highest dose): Increased relative organ weights (e.g., brain and testes) and hematological effects

SMILES: COC(=O)CCc1cc(-n2nc3ccccc3n2)c(O)c(C(C)(C)C)c1 [tBuPrMeEst-BZT, 3-(2H-benzotriazol-2-yl)-5-(1,1-dimethylethyl)-4-hydroxybenzenepropanoic acid, methyl ester]
Tmax (time at which Cmax was achieved) [3]: 1 to 2 h
maximum blood concentration (Cmax) [3]: < 2 µg/g

SMILES: CC(C)(C)CC(C)(C)c1ccc(O)c(-n2nc3ccccc3n2)c1 [Octrizole, 2-(2H-Benzotriazol-2-yl)-4-(1,1,3,3-tetramethylbutyl)phenol]
AUC [4]: 3510 ± 440 ng·h/mL
Cmax [4]: 20600 ± 7800 ng/mL
Half-life (gamma half-life) [4]: 15.4 ± 2.4 h
time points where plasma concentrations were below LOD ([5]; single gavage 300 mg/kg group): 0.0333 h
AUC [1, 7]: 5980 ± 1950 ng·h/mL
Cmax [1, 7]: 561 ± 170 ng/mL
Half-life (beta half-life) [1, 7]: 56.8 ± 233 h
Tmax [1, 7]: 3.71 ± 1.08 h
AUC [1, 8]: 30000 ± 7400 ng·h/mL
Cmax [1, 8]: 3590 ± 850 ng/mL
Half-life (beta half-life) [1, 8]: 21.4 ± 18.2 h

SMILES: CCCCCCCCOC(=O)CCc1cc(-n2nc3ccccc3n2)c(O)c(C(C)(C)C)c1 [tBuPrOcEst-BZT, 3-(2H-Benzotriazol-2-yl)-5-(1,1-dimethylethyl)-4-hydroxybenzenepropanoic acid, octyl ester]
AUC [4]: 13800 ± 300 ng·h/mL
Cmax [4]: 22400 ± 900 ng/mL
Half-life (gamma half-life) [4]: 19.2 ± 1.1 h
Oral bioavailability ([6]; 30 mg/kg): 23.0%
Oral bioavailability ([6]; 300 mg/kg): 16.0%
AUC ([1]; male, Sprague Dawley, 30 mg/kg): 42300 ± 11500 ng·h/mL
Cmax ([1]; male, Sprague Dawley, 30 mg/kg): 12800 ± 3100 ng/mL
Half-life (beta half-life) ([1]; male, Sprague Dawley, 30 mg/kg): 9.53 ± 1.73 h
Tmax ([1]; male, Sprague Dawley, 30 mg/kg): 1.07 ± 0.30 h
AUC [1, 9]: 294000 ± 85000 ng·h/mL
Cmax [1, 9]: 47800 ± 13500 ng/mL
Half-life (beta half-life) [1, 9]: 13.6 ± 6.4 h
Tmax [1, 9]: 1.91 ± 0.56 h
Cmax [1, 8]: 12800 to 47800 ng/mL
Tmax [1, 8]: 1.07 to 1.91 h
plasma elimination half-life (beta half-life) [1, 8]: 9.53 to 13.6 h
concentration of the parent in plasma ([1]; po): mostly below LOD

Half-life (beta half-life) ([1]; male, Sprague Dawley, 30 mg/kg): 1120 ± 5780 h
Cmax [1, 7]: 138 ± 1900 ng/mL
Tmax [1, 7]: 0.0196 ± 24.6 h
AUC [1, 8]: 29800 ± 14700 ng·h/mL
Cmax [1, 8]: 358 ± 26 ng/mL
Half-life (beta half-life) [1, 8]: 103 ± 72 h
plasma elimination half-life (beta half-life) [1, 8]: 103 to 1120 h
SMILES: Cc1ccc(O)c(-n2nc3ccccc3n2)c1 [Drometrizole, 2-(2H-Benzotriazol-2-yl)-4-methylphenol]

SMILES: CCC(C)(C)c1cc(-n2nc3ccccc3n2)c(O)c(C(C)(C)CC)c1 [ditPe-BZT, 2-(2H-Benzotriazol-2-yl)-4,6-bis(1,1-dimethylpropyl)phenol]
Oral bioavailability ([6]; 300 mg/kg): 5.53%
Tmax [1, 7]: 2.96 ± 1.10 h
Half-life (beta half-life) [1, 8]: 17.1 ± 53.3 h

SMILES: CC(C)(C)c1ccc(O)c(-n2nc3ccccc3n2)c1 [tBu-BZT, 2-(2H-Benzotriazol-2-yl)-4-tert-butylphenol]
increase in AUC with a 10-fold increase in the dose ([5]; gavage 30 to 300 mg/kg): dose-proportional

SMILES: CC(C)(C)c1cc(CCC(=O)OCCCCCCOC(=O)CCc2cc(-n3nc4ccccc4n3)c(O)c(C(C)(C)C)c2)cc(-n2nc3ccccc3n2)c1O [tBuPrHexEst-BZT, 3-(2H-benzotriazol-2-yl)-5-(1,1-dimethylethyl)-4-hydroxybenzenepropanoic acid, 1,6-hexanediyl ester]
Tmax (time at which Cmax was achieved) [3]: 1 to 2 h
apparent half-life [3]: ~ 12 h
maximum blood concentration (Cmax) [3]: < 0.13 µg/g
